Data: patent publication EP2758382B1, “HETEROCYCLOCARBONYLAMINOTHIAZOLES, COSMETIC AND DERMATOLOGICAL PREPARATIONS CONTAINING THEM, AND THEIR USE FOR THE TREATMENT AND PROPHYLAXIS OF UNWANTED PIGMENTATION OF THE SKIN” (Beiersdorf AG, priority 2011, dated 2013)

Target: T1, humane Tyrosinase (Homo sapiens, UniProt P14679)
T1 sequence (P14679 19-529): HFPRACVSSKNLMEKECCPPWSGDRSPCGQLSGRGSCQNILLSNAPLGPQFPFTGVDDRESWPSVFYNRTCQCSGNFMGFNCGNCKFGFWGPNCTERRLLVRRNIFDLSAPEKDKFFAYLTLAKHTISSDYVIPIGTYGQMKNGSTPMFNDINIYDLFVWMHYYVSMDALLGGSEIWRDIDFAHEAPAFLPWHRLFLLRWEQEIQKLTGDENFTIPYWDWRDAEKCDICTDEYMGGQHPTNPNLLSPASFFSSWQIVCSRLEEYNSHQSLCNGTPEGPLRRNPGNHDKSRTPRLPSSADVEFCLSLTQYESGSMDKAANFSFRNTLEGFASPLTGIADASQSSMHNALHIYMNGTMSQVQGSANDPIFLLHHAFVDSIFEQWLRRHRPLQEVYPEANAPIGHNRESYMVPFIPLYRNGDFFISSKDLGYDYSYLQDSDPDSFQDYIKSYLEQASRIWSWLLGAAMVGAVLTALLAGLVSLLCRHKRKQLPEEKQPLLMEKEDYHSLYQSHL
Assay: Enzyme test: conversion of L-DOPA to L-Dopachinon by human tyrosinase, MBTH detection, absorption at 490 nm
Assay type: biochemical
Conditions: Konzentration 10 µg/mL; substrate L-DOPA
From the text: Die Wirksamkeit der Thiazole wurde mit einem Enzymtest belegt, in der Umsatz von L-DOPA zu L-Dopachinon durch eine humane Tyrosinase gemessen wurde. Bei dieser literaturbekannten Methode (Winder, A.J. and Harris, H., New assays for the tyrosine hydroxylase and dopa oxidase activities of tyrosinase. Eur. J. Blochem. (1991), 198, 317-26) wird das Reaktionsprodukt L-Dopaquinone mit MBTH (3-methyl-2-benzothiazoline hydrazone) zu einer pinkfarbenen Substanz umgesetzt, deren Zunahme über die Zeit durch Absorption bei 490 nm gemessen wird. In Tabelle ein sind Wirksamkeitsdaten für einige der beanspruchten Substanzen beispielhaft dargestellt. Daraus lässt sich schließen, dass die erfindungsgemäßen Substanzen äußerst effektive pigmentierungs-inhibierende Substanzen sind.

SMILES | Inhibition (% der Kontrolle)
CCN1CCN(c2nc(-c3ccc(O)cc3O)cs2)CC1 [4-(2-(4-Ethylpiperazin-1-yl)thiazol-4-yl)benzen-1,3-diol] | 91
Oc1ccc(-c2csc(N3CCOCC3)n2)c(O)c1 [4-(2-Morpholinothiazol-4-yl)benzen-1,3-diol] | 91
Oc1ccc(-c2csc(N3CCCCC3)n2)c(O)c1 [4-(2-(Piperidin-1-yl)thiazol-4-yl)benzen-1,3-diol] | 82
Oc1ccc(-c2csc(N3CCNCC3)n2)c(O)c1 [4-(2-(Piperazin-1-yl)thiazol-4-yl)benzen-1,3-diol] | 93

Next, values leading:

Inhibition (% der Kontrolle) | SMILES
97 | O=C(Nc1nc(-c2ccc(O)cc2O)cs1)N1CCOCC1 [N-(4-(2,4-dihydroxyphenyl)thiazol-2-yl)morpholin-4-carboxamid]
94 | O=C(Nc1nc(-c2ccc(O)cc2O)cs1)N1CCNCC1 [N-(4-(2,4-dihydroxyphenyl)thiazol-2-yl)piperazin-1-carboxamid]
94 | CCN1CCN(C(=O)Nc2nc(-c3ccc(O)cc3O)cs2)CC1 [N-(4-(2,4-dihydroxyphenyl)thiazol-2-yl)-4-ethylpiperazin-1-carboxamid]
97 | O=C(Nc1nc(-c2ccc(O)cc2O)cs1)N1CCCCC1 [N-(4-(2,4-dihydroxyphenyl)thiazol-2-yl)piperidin-1-carboxamid]
